Consider 1 molecule from publication PMC11487561 (ACS Chemical Neuroscience, 2024).

As a reminder, the IC50 is the concentration needed to halve the response being measured. A low value points to greater potency in that assay. As a reminder, the EC50 is the concentration needed to bring the measured effect to its halfway point.

Series [1] concerns the target Leukotriene, Cysteinyl CysLT1 (Homo sapiens, UniProt Q9Y271). Briefly: Lead Profiling Screen – Eurofins Panlabs. Conditions: read-out: % inh at 10 μM. Format: binding.
Series [2] addresses Nicotinic Acetylcholine α1, Bungarotoxin (Homo sapiens, UniProt P02708+P07510+Q07001). Briefly: Lead Profiling Screen – Eurofins Panlabs. Type of series: binding. Conditions: read-out: % inh at 10 μM.
In series [3] the target is Platelet Activating Factor (PAF) (Homo sapiens, UniProt P25105). Briefly: Lead Profiling Screen – Eurofins Panlabs. Format: binding. Conditions: read-out: % inh at 10 μM.
Chain of Platelet Activating Factor (PAF) (P25105 whole entry): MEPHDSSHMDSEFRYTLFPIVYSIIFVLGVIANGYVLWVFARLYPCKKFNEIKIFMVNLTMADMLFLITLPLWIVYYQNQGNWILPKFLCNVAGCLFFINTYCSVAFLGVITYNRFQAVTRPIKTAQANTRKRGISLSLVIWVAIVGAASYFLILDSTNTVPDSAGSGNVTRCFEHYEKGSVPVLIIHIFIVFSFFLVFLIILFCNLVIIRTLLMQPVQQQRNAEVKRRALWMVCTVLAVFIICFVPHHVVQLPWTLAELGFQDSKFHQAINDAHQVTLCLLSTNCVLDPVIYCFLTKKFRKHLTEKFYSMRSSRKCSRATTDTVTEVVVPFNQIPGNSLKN
Series [4] deals with Calcium Channel L-Type, Dihydropyridine. Briefly: Lead Profiling Screen – Eurofins Panlabs. Format: binding, rat.
In the next series the target is T1, CYP 3A4 (Homo sapiens, UniProt P08684).
T1 construct: from tissue; host or cells: pooled human liver microsomes (according to the earlier reading)
Briefly: P450 inhibition in pooled human liver microsomes. Format: in vitro ADME. Conditions: pooled HLM, NADPH, CYP-specific probe substrates. Background: Microsomes from liver hold many membrane-bound enzymes, among them those of drug oxidation.

A further series addresses human M2 (Homo sapiens, UniProt P08172). Briefly: Calcium mobilization assay, muscarinic selectivity. Type of series: cell-based. (In general: Calcium assays in cells follow changes in intracellular calcium, usually with a dye or a luminescent sensor.)
Another series has as its target Tachykinin NK1 (Homo sapiens, UniProt P25103). Briefly: Lead Profiling Screen – Eurofins Panlabs. Format: binding. Conditions: read-out: % inh at 10 μM.
The next series has as its system Phorbol Ester. Briefly: Lead Profiling Screen – Eurofins Panlabs. Type of series: binding, mouse.
The target of another series is T2, Calcium Channel N-Type (Rattus norvegicus, UniProt Q02294).
T2 construct: Eurofins Panlabs (contract screen)
Briefly: Lead Profiling Screen – Eurofins Panlabs. Format: binding. Conditions: read-out: % inh at 10 μM.

Another series deals with Histamine H2 (Homo sapiens, UniProt P25021). Briefly: Lead Profiling Screen – Eurofins Panlabs. Type of series: binding. Conditions: read-out: % inh at 10 μM.
Chain of Histamine H2 (P25021 whole entry): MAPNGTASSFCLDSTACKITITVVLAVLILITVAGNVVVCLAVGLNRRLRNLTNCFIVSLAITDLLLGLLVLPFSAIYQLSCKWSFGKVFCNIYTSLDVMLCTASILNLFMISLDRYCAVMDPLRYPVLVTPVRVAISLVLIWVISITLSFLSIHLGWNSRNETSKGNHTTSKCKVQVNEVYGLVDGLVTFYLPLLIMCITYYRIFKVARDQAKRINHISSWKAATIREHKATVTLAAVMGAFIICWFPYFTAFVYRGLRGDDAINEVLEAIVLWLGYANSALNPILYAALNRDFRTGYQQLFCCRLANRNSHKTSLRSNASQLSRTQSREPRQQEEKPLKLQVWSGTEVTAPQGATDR
Series [5] can be described thus: Binding in plasma from human (equilibrium dialysis). Format: in vitro ADME. Conditions: human, plasma, fraction unbound; equilibrium dialysis; read-out: human fu,plasma. The method, then: Binding in plasma from rat and human.
Determination of compounds’ fraction unbound (f u) in plasma from rat and human was conducted in vitro via equilibrium dialysis using HTDialysis membrane plates. Dialysis membranes (four paired strips per HTD assay) were hydrated as described by the manufacturer and inserted into the HTD plate, which was assembled and prepared for sample addition by the dispensing of blank buffer (DPBS, 100 µL/well) into the ‘top half’ of each membrane-split well. Each compound was diluted into plasma from each species (5 µM final concentration), which was aliquoted in triplicate to the ‘bottom half’ of the prepared HTD plate wells. The HTD plate was sealed and incubated for 6 hours at 37 °C. Following incubation, each well (both top and bottom halves) were transferred (20 µL) to the corresponding wells of a 96-shallow-well (V-bottom) plate. The daughter plates were then matrix-matched (buffer side wells received equal volume of plasma, and plasma side wells received equal volume of buffer), and extraction solution (120 µL; acetonitrile containing 50 nM carbamazepine as IS) was added to all wells of both daughter plates to precipitate protein and extract test article. The plates were then sealed and centrifuged (3500 rcf) for 10 minutes at ambient temperature. Supernatant (60 µL) from each well of the daughter plates was then transferred to the corresponding wells of new daughter plates (96-shallow-well, V bottom) containing water (Milli-Q, 60 µL/well), and the plates were sealed in preparation for LC-MS/MS analysis (see below). fu was calculated as (analyte to IS MS peak area ratio from Trans-buffer side) / (analyte to IS MS peak area ratio from Cis-plasma side). Mean values for each species were calculated from 3 replicates.
Background: In equilibrium dialysis only unbound substance equilibrates across the membrane.

For the next series, the system named is GABAA, Muscimol, Central. Briefly: Lead Profiling Screen – Eurofins Panlabs. Format: binding, rat.
For series [6], the system named is amphetamine-induced hyperlocomotion in rats. Briefly: Rat amphetamine-induced hyperlocomotion (AHL). Type of series: in vivo. Conditions: for mean reversal of AHL: listed as VU6016235. The method, then:
Rat Amphetamine-Induced Hyperlocomotion (AHL) Protocol
Male Harlan Sprague Dawley rats with a mean body weight of 240 g (range 221-264 g) were tested in SmartFrame Open Field locomotor activity test chambers to automatically record locomotor activity. All rats were habituated in locomotor activity enclosures for 30 min, followed by pretreatment by oral gavage for an additional 30 min with either vehicle or a dose of VU6016235 or the comparator M 4 PAM VU0467154. Next, rats were injected subcutaneously with vehicle or a dose of 0.75 mg/kg amphetamine and then monitored for an additional 60 min. Changes in locomotor activity were recorded for a total of 120 min. Locomotor data were expressed as the number of photobeam breaks/5 min intervals across the 120-min test session or as the total ambulation, calculated as sum of photobeam beam breaks from the time of amphetamine administration (60 min) until the end of the study (120 min). Time course data were analyzed by two-way ANOVA with main effects of treatment and time; changes in total ambulation were analyzed by one-way ANOVA followed by Dunnett’s post hoc test (GraphPad Prism 7 [GraphPad Software, San Diego, CA]). For all tests, α ≤ 0.05 was considered to represent statistical significance.
Finally, percent reversal data were calculated in Microsoft Excel using the following formula: Percent Reversal = 100 - {[(total ambulation in individual animal from t = 60 to t = 120) / (mean total ambulation […]
from t=60 to t=120 in the VAMP group)] * 100}. Mean percent reversal ± S.E.M. was calculated for each dose group using GraphPad Prism 7.
At the end of this behavioral study, each rat was euthanized, then decapitated, and the plasma and brain tissues were collected for the evaluation of exposure levels of VU6016235-05 or VU0467154-9A by pharmacokinetic analysis. […]

The target in a further series is T3, CYP 1A2 (Homo sapiens, UniProt P05177).
T3 construct: from tissue; host or cells: pooled human liver microsomes (according to the earlier reading)
T3 sequence (P05177 whole entry): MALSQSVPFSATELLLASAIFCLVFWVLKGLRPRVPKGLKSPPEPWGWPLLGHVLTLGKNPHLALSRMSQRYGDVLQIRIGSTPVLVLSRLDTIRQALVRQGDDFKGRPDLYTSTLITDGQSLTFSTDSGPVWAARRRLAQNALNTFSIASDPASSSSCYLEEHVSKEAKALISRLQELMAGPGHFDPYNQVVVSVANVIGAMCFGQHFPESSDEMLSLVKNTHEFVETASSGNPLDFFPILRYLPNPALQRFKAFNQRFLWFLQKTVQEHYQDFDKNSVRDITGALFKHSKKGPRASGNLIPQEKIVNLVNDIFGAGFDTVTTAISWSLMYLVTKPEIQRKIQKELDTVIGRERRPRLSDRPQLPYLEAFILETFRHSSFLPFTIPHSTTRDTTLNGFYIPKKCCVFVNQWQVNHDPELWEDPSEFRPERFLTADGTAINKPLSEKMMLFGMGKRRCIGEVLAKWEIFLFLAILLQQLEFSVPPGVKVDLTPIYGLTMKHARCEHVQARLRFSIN
Briefly: P450 inhibition in pooled human liver microsomes. Type of series: in vitro ADME. Conditions: pooled HLM, NADPH, CYP-specific probe substrates.

The target of another series is Glutamate, NMDA, Glycine (Rattus norvegicus, UniProt P35439). Briefly: Lead Profiling Screen – Eurofins Panlabs. Format: binding. Conditions: read-out: % inh at 10 μM.
Chain of Glutamate, NMDA, Glycine (P35439 394-800 limits assumed): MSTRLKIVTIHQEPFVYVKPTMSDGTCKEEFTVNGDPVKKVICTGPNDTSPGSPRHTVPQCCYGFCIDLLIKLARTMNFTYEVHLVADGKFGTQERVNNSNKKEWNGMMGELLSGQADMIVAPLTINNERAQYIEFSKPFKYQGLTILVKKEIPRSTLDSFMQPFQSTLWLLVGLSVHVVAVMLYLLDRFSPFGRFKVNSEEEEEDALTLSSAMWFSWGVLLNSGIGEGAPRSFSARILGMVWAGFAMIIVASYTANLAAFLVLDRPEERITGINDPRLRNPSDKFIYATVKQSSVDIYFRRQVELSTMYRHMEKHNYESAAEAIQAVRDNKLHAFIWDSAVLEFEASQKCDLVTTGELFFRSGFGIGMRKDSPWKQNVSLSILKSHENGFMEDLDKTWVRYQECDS
The next series has as its target T4, Estrogen ERα (Homo sapiens, UniProt P03372).
T4 construct: Eurofins Panlabs (contract screen)
Briefly: Lead Profiling Screen – Eurofins Panlabs. Type of series: binding. Conditions: read-out: % inh at 10 μM.

A further series concerns Dopamine D4.2. Briefly: Lead Profiling Screen – Eurofins Panlabs. Type of series: binding, human.
The target in series [7] is Serotonin (5-Hydroxytryptamine) 5-HT3 (Homo sapiens, UniProt P46098). Briefly: Lead Profiling Screen – Eurofins Panlabs. Format: binding. Conditions: read-out: % inh at 10 μM.

Chain of human M2 (P08172 whole entry): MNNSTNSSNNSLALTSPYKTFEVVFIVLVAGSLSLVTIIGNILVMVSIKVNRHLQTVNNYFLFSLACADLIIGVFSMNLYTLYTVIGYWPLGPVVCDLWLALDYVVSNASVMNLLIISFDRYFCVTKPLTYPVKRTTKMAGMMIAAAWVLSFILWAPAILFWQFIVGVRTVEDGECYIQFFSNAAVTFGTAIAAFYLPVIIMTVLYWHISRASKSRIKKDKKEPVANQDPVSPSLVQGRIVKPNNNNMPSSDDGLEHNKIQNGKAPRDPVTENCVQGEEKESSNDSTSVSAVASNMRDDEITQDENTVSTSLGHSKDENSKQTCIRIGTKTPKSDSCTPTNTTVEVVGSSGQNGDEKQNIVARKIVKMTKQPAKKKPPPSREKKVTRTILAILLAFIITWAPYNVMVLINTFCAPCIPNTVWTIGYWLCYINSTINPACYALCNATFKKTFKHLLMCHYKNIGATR
T4 sequence (P03372 whole entry): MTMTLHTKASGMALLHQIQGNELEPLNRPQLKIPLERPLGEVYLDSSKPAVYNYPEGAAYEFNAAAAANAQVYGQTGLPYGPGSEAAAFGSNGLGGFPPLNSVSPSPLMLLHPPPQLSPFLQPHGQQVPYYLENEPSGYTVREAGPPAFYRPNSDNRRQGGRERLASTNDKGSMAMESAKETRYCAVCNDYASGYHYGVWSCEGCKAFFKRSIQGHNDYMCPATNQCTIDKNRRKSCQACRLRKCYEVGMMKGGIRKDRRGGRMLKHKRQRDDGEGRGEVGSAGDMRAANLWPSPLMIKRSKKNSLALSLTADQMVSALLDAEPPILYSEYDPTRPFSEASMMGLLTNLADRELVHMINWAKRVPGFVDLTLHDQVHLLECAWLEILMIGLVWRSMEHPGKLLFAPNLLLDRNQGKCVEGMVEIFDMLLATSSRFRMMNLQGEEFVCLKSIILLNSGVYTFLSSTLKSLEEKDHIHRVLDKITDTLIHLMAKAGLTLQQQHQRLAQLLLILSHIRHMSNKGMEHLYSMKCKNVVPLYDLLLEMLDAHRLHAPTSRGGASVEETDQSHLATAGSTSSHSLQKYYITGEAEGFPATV
Chain of Nicotinic Acetylcholine α1, Bungarotoxin (P02708 21-457): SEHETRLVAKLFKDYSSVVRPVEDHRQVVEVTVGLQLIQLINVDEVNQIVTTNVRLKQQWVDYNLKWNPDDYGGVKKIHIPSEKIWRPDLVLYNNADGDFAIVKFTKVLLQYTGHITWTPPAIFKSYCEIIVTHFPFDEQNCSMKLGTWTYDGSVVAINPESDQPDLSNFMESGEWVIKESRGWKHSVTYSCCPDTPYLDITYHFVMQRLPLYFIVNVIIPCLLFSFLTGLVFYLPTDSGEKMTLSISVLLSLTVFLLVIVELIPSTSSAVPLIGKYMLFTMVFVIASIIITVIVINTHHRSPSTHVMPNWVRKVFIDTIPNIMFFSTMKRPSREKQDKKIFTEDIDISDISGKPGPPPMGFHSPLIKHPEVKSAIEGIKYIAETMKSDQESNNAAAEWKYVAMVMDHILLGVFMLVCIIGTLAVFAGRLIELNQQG
Chain of Nicotinic Acetylcholine α1, Bungarotoxin (Q07001 22-517): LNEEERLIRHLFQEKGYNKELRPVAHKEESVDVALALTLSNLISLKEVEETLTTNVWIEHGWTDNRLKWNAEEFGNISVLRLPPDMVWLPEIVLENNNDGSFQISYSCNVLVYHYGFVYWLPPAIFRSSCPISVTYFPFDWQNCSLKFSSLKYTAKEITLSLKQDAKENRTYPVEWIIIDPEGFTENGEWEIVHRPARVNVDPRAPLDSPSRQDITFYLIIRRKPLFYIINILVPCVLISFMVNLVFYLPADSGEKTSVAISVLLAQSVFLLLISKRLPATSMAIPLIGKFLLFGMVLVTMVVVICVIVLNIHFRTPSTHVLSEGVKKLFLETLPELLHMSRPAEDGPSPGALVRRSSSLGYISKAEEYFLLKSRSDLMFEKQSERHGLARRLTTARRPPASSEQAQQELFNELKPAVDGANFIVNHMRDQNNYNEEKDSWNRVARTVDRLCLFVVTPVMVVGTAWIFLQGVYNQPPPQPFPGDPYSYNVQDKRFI
Chain of Nicotinic Acetylcholine α1, Bungarotoxin (P07510 23-517): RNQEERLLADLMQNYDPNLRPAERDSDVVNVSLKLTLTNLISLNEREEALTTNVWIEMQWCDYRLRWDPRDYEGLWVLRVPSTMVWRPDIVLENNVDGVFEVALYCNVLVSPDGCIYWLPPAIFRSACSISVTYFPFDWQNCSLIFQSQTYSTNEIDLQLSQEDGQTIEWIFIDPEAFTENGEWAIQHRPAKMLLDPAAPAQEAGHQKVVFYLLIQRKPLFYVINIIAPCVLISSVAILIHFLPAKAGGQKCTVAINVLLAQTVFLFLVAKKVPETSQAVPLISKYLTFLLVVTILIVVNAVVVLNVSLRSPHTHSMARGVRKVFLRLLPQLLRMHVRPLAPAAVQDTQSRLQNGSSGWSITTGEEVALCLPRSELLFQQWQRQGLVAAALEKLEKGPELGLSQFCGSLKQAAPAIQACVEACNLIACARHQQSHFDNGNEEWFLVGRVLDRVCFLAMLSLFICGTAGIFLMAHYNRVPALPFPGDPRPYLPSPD
Chain of Nicotinic Acetylcholine α1, Bungarotoxin (P11230 24-501, further chain): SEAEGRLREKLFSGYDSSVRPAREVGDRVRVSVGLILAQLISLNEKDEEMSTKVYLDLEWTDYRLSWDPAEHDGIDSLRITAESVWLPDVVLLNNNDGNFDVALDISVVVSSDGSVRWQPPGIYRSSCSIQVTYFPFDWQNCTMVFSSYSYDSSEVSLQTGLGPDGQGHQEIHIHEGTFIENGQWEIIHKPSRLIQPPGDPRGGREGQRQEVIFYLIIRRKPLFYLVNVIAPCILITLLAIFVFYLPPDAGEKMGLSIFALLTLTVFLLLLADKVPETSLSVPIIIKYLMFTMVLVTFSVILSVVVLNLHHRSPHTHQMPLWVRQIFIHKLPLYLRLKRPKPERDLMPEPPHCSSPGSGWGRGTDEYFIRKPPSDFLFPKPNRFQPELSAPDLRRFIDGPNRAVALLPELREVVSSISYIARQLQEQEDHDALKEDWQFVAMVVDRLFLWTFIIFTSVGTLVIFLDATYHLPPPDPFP
Chain of Leukotriene, Cysteinyl CysLT1 (Q9Y271 whole entry): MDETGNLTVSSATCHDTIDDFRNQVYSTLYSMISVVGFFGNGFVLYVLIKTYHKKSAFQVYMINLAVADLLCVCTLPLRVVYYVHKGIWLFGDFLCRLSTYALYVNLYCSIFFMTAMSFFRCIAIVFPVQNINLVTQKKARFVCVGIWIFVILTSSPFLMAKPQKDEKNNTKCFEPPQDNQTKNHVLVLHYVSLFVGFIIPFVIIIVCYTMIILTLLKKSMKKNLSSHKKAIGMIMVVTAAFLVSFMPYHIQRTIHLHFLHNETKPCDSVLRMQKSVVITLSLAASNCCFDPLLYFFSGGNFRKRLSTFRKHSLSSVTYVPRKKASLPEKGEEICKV

Take `Cc1nc(C)c2c(n1)sc1c(NCc3ccc(C(C)(C)O)cc3)nccc12` [22g]: the inhibition at 10 µM was 6% in series [1]; -8% in [2]; 7% in series [3]; 8% on Tachykinin NK1; 2% on Calcium Channel N-Type; -17% on Histamine H2. In addition, the inhibition at 10 µM on Glutamate, NMDA, Glycine was -9%; at Estrogen ERα, -8%; in series [7], -20%. The “% inh at 10 μM” value in series [4] is listed as -1%; in the series with Phorbol Ester, -1%; with GABAA, Muscimol, Central it was 1%; in the series on Dopamine D4.2, 4%. The figures for the IC50 against CYP 3A4 and on CYP 1A2 were 17 µM and 23 µM, respectively. Further, at human M2, the 50% effective concentration (EC50) came out at 6.2 µM. For the same molecule, the “human M2 %Ach Max” value at human M2 is “[46] %Ach Max”. Further, the fraction unbound at 6 h, 5 µM in series [5] turned out to be 0.014. In addition, the “mean % reversal of AHL” value in [6] (0.56 mg/kg p.o. + amphetamine 0.75 mg/kg s.c.) was 12.8 ± 3.9%. For the same molecule, the results for the “mean reversal of AHL” value in series [6] (3 mg/kg p.o. + amphetamine 0.75 mg/kg s.c.) and in series [6] (10 mg/kg p.o. + amphetamine 0.75 mg/kg s.c.) were 41.4% and 54.2%, respectively. The “MED, reversal of AHL” value in series [6] (oral administration) turned out to be 1 mg/kg.
